The source of these data is PubChem BioAssay (NCI).

The structures appear in SMILES notation.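 Cells were grown in 96-well plates and exposed to each compound for 48 hours at five concentrations; endpoints were interpolated linearly between bracketing concentrations, or set to the highest concentration if not reached. GI50 is the concentration that inhibits growth by half. Definition used: TGI = concentration required for complete inhibition of growth.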 Bounds are passed on as bounds.

Test systems include ACHN renal; K-562 leukemia; NCI-H23 lung; OVCAR-4 ovarian; SK-MEL-5 melanoma; SNB-19 CNS; SNB-75 CNS; SW-620 colon; T-47D breast; KM12 colon.
Test in all cases: DTP human tumour cell line panel, 48 h

Broadly, the TGI is the concentration giving total growth inhibition. A high value points to less potent growth arrest. Take `COc1cc(S(=O)(=O)Nc2ccc(-c3csc(/N=C\c4cccs4)n3)cc2)ccc1Cl`: the TGI in the assay with ACHN renal, in the assay on K-562 leukemia, in the assay with NCI-H23 lung, with OVCAR-4 ovarian, in the assay on SK-MEL-5 melanoma and in the assay with SNB-19 CNS was more than 100 µM in each case. Further, the total growth inhibition concentration (TGI) in the assay on SNB-75 CNS was 81.5 µM; in the assay with SW-620 colon, more than 100 µM; with T-47D breast, 62.8 µM.
In the case of `CC(=O)c1sc2c(c1O)c(=O)n(-c1ccccc1)c(=S)n2-c1ccccc1`, the TGI in the assay with K-562 leukemia, with KM12 colon, in the assay on NCI-H23 lung, with OVCAR-4 ovarian, with SK-MEL-5 melanoma and in the assay on SNB-19 CNS was more than 100 µM throughout. The concentration for total growth inhibition (TGI) with SNB-75 CNS, in the assay on SW-620 colon and in the assay on T-47D breast was more than 100 µM in each case.
With `Cc1cc(C)nc(NC(=S)Nc2ccc(Cl)cc2)c1`, the TGI in the assay with K-562 leukemia was more than 100 µM; in the assay on KM12 colon, more than 100 µM; with OVCAR-4 ovarian it was 61.1 µM; with SK-MEL-5 melanoma, more than 100 µM; with SNB-19 CNS it was more than 100 µM; in the assay with SNB-75 CNS it was 63.7 µM. Further, the TGI in the assay with SW-620 colon and in the assay with T-47D breast was more than 100 µM in each case.
As to `O=C1CC(=O)NC(=NN2C(=O)/C(=C/c3ccc(Cl)cc3)N=C2c2ccccc2)N1`, the TGI worked out at 52.4 µM in the assay with ACHN renal; 28 µM in the assay on K-562 leukemia; 27.6 µM in the assay with KM12 colon; 31.5 µM in the assay on NCI-H23 lung; 22.5 µM in the assay with OVCAR-4 ovarian; 32 µM in the assay on SK-MEL-5 melanoma. For the same compound, the total growth inhibition concentration (TGI) was 60.2 µM in the assay with SNB-75 CNS, 31.9 µM with SW-620 colon and more than 100 µM in the assay with T-47D breast.
As to `O/N=C1\CSc2ccccc2C1`, the TGI with ACHN renal, with K-562 leukemia, with KM12 colon, in the assay on NCI-H23 lung, in the assay with OVCAR-4 ovarian and with SK-MEL-5 melanoma was more than 100 µM throughout. Besides, the TGI in the assay on SNB-19 CNS, with SW-620 colon and with T-47D breast was more than 100 µM each time.
For `CC(=O)Oc1ccc2cc(Oc3ccccc3)c(=O)oc2c1`, the concentration for total growth inhibition (TGI) in the assay with ACHN renal, in the assay on KM12 colon, in the assay with NCI-H23 lung, in the assay with OVCAR-4 ovarian, in the assay with SK-MEL-5 melanoma and with SNB-19 CNS was more than 100 µM each time. Further, the concentration for total growth inhibition (TGI) in the assay on SNB-75 CNS, in the assay with SW-620 colon and with T-47D breast was more than 100 µM throughout.
`O=S(=O)(/N=C(\NO)Nc1ccc(Cl)cc1)c1cc(S(=O)(=O)c2ccccc2)cs1`: the total growth inhibition concentration (TGI) turned out to be 42.3 µM in the assay on ACHN renal; 31.6 µM in the assay with K-562 leukemia; 64.7 µM in the assay with KM12 colon; 41.9 µM in the assay on NCI-H23 lung; 57.3 µM in the assay on OVCAR-4 ovarian; 21.9 µM in the assay on SK-MEL-5 melanoma. For the same compound, the TGI in the assay with SNB-19 CNS is 42.6 µM; in the assay with SW-620 colon it was 49.2 µM; in the assay on T-47D breast, 44.3 µM.
As to `Cn1cnnc1SC(F)(F)c1nc2ccccc2o1`, the concentration for total growth inhibition (TGI) in the assay on ACHN renal, in the assay on K-562 leukemia, in the assay with KM12 colon, in the assay with NCI-H23 lung, with OVCAR-4 ovarian and in the assay on SK-MEL-5 melanoma was more than 100 µM throughout. Besides, the concentration for total growth inhibition (TGI) in the assay with SNB-75 CNS, with SW-620 colon and in the assay with T-47D breast was more than 100 µM each time.
Consider `O=C(/C=C/c1ccc(Cl)cc1)c1ccc(Cl)s1`, for which the TGI in the assay on ACHN renal, with K-562 leukemia, in the assay on KM12 colon, with NCI-H23 lung, in the assay on OVCAR-4 ovarian and in the assay on SNB-19 CNS was more than 100 µM throughout. In addition, the total growth inhibition concentration (TGI) in the assay with SNB-75 CNS was more than 100 µM; with SW-620 colon, 55 µM; in the assay on T-47D breast it was more than 100 µM.
For `N#C[C@H](C(=O)c1ccccc1F)c1nc2ccccc2[nH]1`, the TGI in the assay with ACHN renal, in the assay on K-562 leukemia, in the assay on KM12 colon, in the assay with NCI-H23 lung, with OVCAR-4 ovarian and in the assay on SNB-19 CNS was more than 100 µM each time. The TGI in the assay with SNB-75 CNS, with SW-620 colon and in the assay on T-47D breast was more than 100 µM in each case.
As to `CCCCC1Cc2cc(OC)ccc2-c2n1c1cc(OC)ccc1[n+]2C` (stereo not drawn) (tested in a mixture with another compound), the TGI with ACHN renal is 48 µM; with K-562 leukemia, more than 62.8 µM; with KM12 colon, 10.7 µM; in the assay on NCI-H23 lung it was more than 39.9 µM; in the assay on OVCAR-4 ovarian, 20.7 µM; in the assay on SK-MEL-5 melanoma, 3.76 µM. Further, the total growth inhibition concentration (TGI) with SNB-75 CNS was 87.6 µM; in the assay on SW-620 colon it was more than 55.5 µM; with T-47D breast it was 45.1 µM.
The term GI50 denotes the concentration that inhibits growth by half. For `CCOc1cc(/C=C/C(=O)CC(=O)/C=C/c2ccc(OC(=O)CNCCN(CC)CC)c(OCC)c2)ccc1OC(=O)CNCCN(CC)CC`, the GI50 in the assay with ACHN renal was 1.92 µM; in the assay with K-562 leukemia, 1.44 µM; in the assay on KM12 colon, 1.4 µM; with OVCAR-4 ovarian, 4.35 µM; in the assay on SK-MEL-5 melanoma, 1.55 µM; in the assay with SNB-19 CNS, 2.86 µM. The GI50 in the assay with SNB-75 CNS was 6 µM; in the assay on SW-620 colon it was 1.29 µM; in the assay with T-47D breast, 6.41 µM. The TGI is 3.54 µM with ACHN renal; 16.3 µM in the assay on K-562 leukemia; 2.97 µM in the assay with KM12 colon; more than 100 µM with OVCAR-4 ovarian; 3.17 µM in the assay on SK-MEL-5 melanoma; 14.2 µM in the assay with SNB-19 CNS. The TGI in the assay with SNB-75 CNS is 62.4 µM; in the assay on SW-620 colon, 3.41 µM; with T-47D breast, 45.4 µM.
On to `Clc1cccc2[nH]ncc12`, for which the TGI in the assay with ACHN renal, in the assay with K-562 leukemia, in the assay on KM12 colon, with OVCAR-4 ovarian, in the assay with SK-MEL-5 melanoma and with SNB-19 CNS was more than 100 µM each time. For the same compound, the TGI in the assay on SNB-75 CNS, in the assay on SW-620 colon and with T-47D breast was more than 100 µM throughout.
Regarding `CCOC(=O)[C@@H]1C[C@@H]1c1ccc(O)c(O)c1`, the TGI was more than 100 µM in the assay with ACHN renal; 32.9 µM in the assay with K-562 leukemia; 82.2 µM in the assay with KM12 colon; more than 100 µM in the assay on NCI-H23 lung; 27.5 µM in the assay with SK-MEL-5 melanoma; more than 100 µM with SNB-19 CNS. The TGI in the assay with SW-620 colon worked out at 42.2 µM; with T-47D breast, 51.7 µM.
